This note sets out measurements from patent US20160046604A1, “HETEROARYL SUBSTITUTED INDAZOLES” (BAYER PHARMA AKTIENGESELLSCHAFT, priority 2013, published 2016).

Assay [1] concerns the target T1, catalytic domain of human Bub1 (amino acids 704-1085) (Homo sapiens, UniProt O43683).
T1 construct: catalytic domain of human Bub1 (amino acids 704-1085); His6 (N); made in house; host or cells: Hi5 insect cells
The assay is described as follows: Bub1 kinase assay (TR-FRET). The class given is biochemical. How it is done:
To this end, 100-fold concentrated compound solutions (in DMSO) were previously prepared by serial dilution (1:3.4) of 2 mM stocks in a clear low volume 384-well source microtiter plate (Greiner Bio-One, Frickenhausen, Germany), from which 50 nL of compounds were transferred into a black low volume test microtiter plate from the same supplier. […] The resulting mixture (5 μL final volume) was incubated at 22° C. during 60 min., and the reaction was stopped by the addition of 5 μL of an aqueous EDTA-solution (50 mM EDTA, in 100 mM HEPES pH 7.5 and 0.2% (w/v) bovine serum albumin) which also contained the TR-FRET detection reagents (0.2 μM streptavidin-XL665 [Cisbio Bioassays, Codolet, France] and 1 nM anti-phoshoSerine antibody [Merck Millipore, cat. #35-001] and 0.4 nM LANCE EU-W1024 labeled anti-mouse IgG antibody [Perkin-Elmer, product no. AD0077, alternatively a Terbium-cryptate-labeled anti-mouse IgG antibody from Cisbio Bioassays can be used]). The stopped reaction mixture was further incubated 1 h at 22° C. in order to allow the formation of complexes between peptides and detection reagents. Subsequently, the amount of product was evaluated by measurement of the resonance energy transfer from the Eu-chelate-antibody complex recognizing the Phosphoserine residue to the streptavidin-XL665 bound to the biotin moiety of the peptide. […] IC50 values were calculated by fitting the normalized inhibition data to a 4-parameter logistic equation (Minimum, Maximum, IC50, Hill; Y=Max+(Min−Max)/(1+(X/IC50)Hill)).
Background: TR-FRET usually uses a lanthanide donor and a delayed reading to cut background.

Assay [2] deals with HeLa human cervical tumor cells. The assay is described as follows: Proliferation assay (HeLa cell line).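 Also: crystal violet staining, absorbance at 595 nm, 0.001–10 µM test range, 4-day exposure, 0% is cell number at dosing and 100% untreated growth, IC50 from 4-parameter fit.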 To be noted: 96 h, read-out: Biological Assay 2: Proliferation assay (HeLa cell line) median IC50.
Experimental: Cultivated HeLa human cervical tumor cells (cells were ordered from ATCC CCL-2) were plated at a density of 3000 cells/well in a 96-well multititer plates in 200 microL DMEM/HAMS F12 culture medium (Biochrom F4815) supplemented with 10% fetal calf serum. After 24 hours, the cells of one plate (zero-point plate) were stained with crystal violet (see below), while the medium of the other plates was replaced by fresh culture medium (200 microL) containing the test substances in various concentrations (0 microM, as well as in the range of 0.001-10 microM; the final concentration of the solvent dimethyl sulfoxide was 0.5%). The cells were incubated for 4 days in the presence of test substances. Cell proliferation was determined by staining the cells with crystal violet: the cells were fixed by adding 20 microL/measuring point of an 11% glutaric aldehyde solution for 15 minutes at room temperature. After three washing cycles of the fixed cells with water, the plates were dried at room temperature. The cells were stained by adding 100 microL/measuring point of a 0.1% crystal violet solution (pH 3.0). After three washing cycles of the stained cells with water, the plates were dried at room temperature. The dye was dissolved by adding 100 microL/measuring point of a 10% acetic acid solution. Absorption was determined by photometry at a wavelength of 595 nm. The change of cell number, in percent, was calculated by normalization of the measured values to the absorption values of the zero-point plate (=0%) and the absorption of the untreated (0 microM) cells (=100%). The IC50 values were determined by means of a 4 parameter fit.

Where two headings read alike, the source gives them in different places.

T1 sequence (O43683 704-1085): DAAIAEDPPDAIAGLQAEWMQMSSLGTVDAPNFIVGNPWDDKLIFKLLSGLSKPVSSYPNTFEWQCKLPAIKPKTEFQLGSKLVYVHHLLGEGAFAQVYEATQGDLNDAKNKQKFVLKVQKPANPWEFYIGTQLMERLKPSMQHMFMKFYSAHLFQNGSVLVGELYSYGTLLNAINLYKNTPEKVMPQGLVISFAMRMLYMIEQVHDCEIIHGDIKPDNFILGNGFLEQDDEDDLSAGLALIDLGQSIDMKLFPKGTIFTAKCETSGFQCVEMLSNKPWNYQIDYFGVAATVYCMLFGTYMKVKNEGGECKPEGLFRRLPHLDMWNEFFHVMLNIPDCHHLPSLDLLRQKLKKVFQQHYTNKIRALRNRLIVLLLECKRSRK

Take `COc1cnc(-c2nn(Cc3nnc(C)o3)c3ccccc23)nc1Nc1ccncc1` [Example 2-2-14, 5-methoxy-2-{1-[(5-methyl-1,3,4-oxadiazol-2-yl)methyl]-1H-indazol-3-yl}-N-(pyridin-4-yl)pyrimidin-4-amine]: the IC50 in assay [1] (TR-FRET, recombinant catalytic domain of human Bub1, ATP 10 μM, peptide substrate 1 μM, 60 min at 22° C., read-out: Biological Assay 1: Bub1 kinase assay median IC50) is 0.87 µM; in assay [2] it was more than 10 µM.
Consider `CCOC(=O)c1cnccc1Nc1cc(N)nc(-c2nn(Cc3c(C)noc3C)c3ccccc23)n1` [Example 2-3-1, ethyl 4-[(6-amino-2-{1-[(3,5-dimethyl-1,2-oxazol-4-yl)methyl]-1H-indazol-3-yl}pyrimidin-4-yl)amino]pyridine-3-carboxylate], for which the IC50 in assay [1] is 0.07 µM; in assay [2] it was more than 10 µM.
Regarding `Cc1noc(C)c1Cn1nc(-c2nc(N)cc(Nc3ccncc3)n2)c2ccccc21` [Example 2-3-2, 2-{1-[(3,5-dimethyl-1,2-oxazol-4-yl)methyl]-1H-indazol-3-yl}-N-(pyridin-4-yl)pyrimidine-4,6-diamine], the IC50 in assay [1] stood at 0.016 µM; in assay [2], 6.7 µM.
For `Cc1noc(C)c1Cn1nc(-c2nc(N)cc(Nc3ccncn3)n2)c2ccccc21` [Example 2-3-3, 2-{1-[(3,5-dimethyl-1,2-oxazol-4-yl)methyl]-1H-indazol-3-yl}-N-(pyrimidin-4-yl)pyrimidine-4,6-diamine] the same measures were 0.031 µM and 0.65 µM.
For `Cc1noc(C)c1Cn1nc(-c2nc(Nc3ccncc3)cc(Nc3ccncc3)n2)c2ccccc21` [Example 2-3-4, 2-{1-[(3,5-dimethyl-1,2-oxazol-4-yl)methyl]-1H-indazol-3-yl}-N,N′-di(pyridin-4-yl)pyrimidine-4,6-diamine] the same measures were 0.33 µM and 4 µM.
For `Cc1noc(C)c1Cn1nc(-c2nc(Nc3ccncn3)cc(Nc3ccncn3)n2)c2ccccc21` [Example 2-3-5, 2-{1-[(3,5-dimethyl-1,2-oxazol-4-yl)methyl]-1H-indazol-3-yl}-N,N′-di(pyrimidin-4-yl)pyrimidine-4,6-diamine] the same measures were 0.15 µM and more than 10 µM.
